Results taken from patent publication US11234918B2, “Methods for botanical and/or algae extraction” (BASF CORPORATION, priority 2012, dated 2022).

Key:
human keratinocytes [1] = test: UVB light protection: LDH release from UVB-irradiated in vitro cultivated human keratinocytes (UVB-LDH); format: cell-based; settings: positive control aspirin at 0.03%, control with UV = 100
Text: Antiinflammatory Properties In Vitro-UVB Light Protection (UVB-LDH and UVB-PGE2)
(§1) Cell Protection Effect Against UVB on In Vitro Cultivated Human Keratinocytes
This membrane stress is indicated by the release of the cytoplasm enzyme lactate dehydrogenase (LDH). The effect of UVB radiation was investigated on keratinocytes in vitro by determining the release of the cytoplasm enzyme LDH (lactate dehydrogenase). This enzyme serves as a marker for cell damage.
(§2) Method: To carry out the tests, a defined medium (DMEM), which comprises 10% fetal calf serum, was inoculated with the keratinocytes and the plant extract (diluted with saline solution) was added 72 hours after inoculation.
(§3) The keratinocytes were then irradiated with a UVB dose (30 mJ/cm^2-tubes: DUKE GL40E).
Following further incubation for 1 day at 37° C. and at 5% CO2, the LDH and the PGE2 content in the supernatant was determined. The content of LDH (lactate dehydrogenase) was determined by means of an enzyme reaction (kit used to investigate the LDH content from Roche). The content of PGE2 was determined using an ELISA test (ELISA kit from Roche). Following trypsin treatment, the cells were centrifuged and counted.
UVB-LDH LDH or lactate dehydrogenase determination by means of an enzyme reaction

human keratinocytes [2] = test: UVB light protection: PGE2 release from UVB-irradiated in vitro cultivated human keratinocytes, ELISA (UVB-PGE2); format: cell-based; settings: positive control aspirin at 0.03%, control with UV = 100
Experimental: as §1, §2, §3
Following further incubation for 1 day at 37° C. and at 5% CO2, the LDH and the PGE2 content in the supernatant was determined. […] The content of PGE2 was determined using an ELISA test (ELISA kit from Roche).
UVB-PGE2 prostaglandins E2 determined using an ELISA test (ELISA kit from Roche).

CC(=O)Oc1ccccc1C(=O)O [aspirin]
LDH release (% of UV control) (human keratinocytes [1]; Table 4): 15% | LDH release (% of UV control) (human keratinocytes [1]; Table 6): 0% | PGE2 release (% of UV control) (human keratinocytes [2]; Table 4): -6% | PGE2 release (% of UV control) (human keratinocytes [2]; Table 6): 0%
